Values quoted from earlier work as cited in publication PMC5517430, “2,3,7,8-Tetrachlorodibenzo-p-dioxin (TCDD)-elicited effects on bile acid homeostasis: Alterations in biosynthesis, enterohepatic circulation, and microbial metabolism” (Scientific Reports, 2017).

System: FXR
Design: method as in PMID 23395169
Conditions: cited from earlier work

SMILES	FXR antagonism
C[C@H](CCC(=O)NCCS(=O)(=O)O)[C@H]1CC[C@H]2[C@@H]3[C@H](O)[C@@H](O)[C@@H]4C[C@H](O)CC[C@]4(C)[C@H]3CC[C@]12C [T-α-MCA, tauro-α-muricholic acid]	competitive antagonists
C[C@H](CCC(=O)NCCS(=O)(=O)O)[C@H]1CC[C@H]2[C@@H]3[C@@H](O)[C@@H](O)[C@@H]4C[C@H](O)CC[C@]4(C)[C@H]3CC[C@]12C [T-β-MCA]	competitive antagonists
